# Experimental data taken from patent publication US12605397B2, “Deoxy-cytidine or uridine derivatives for use in cancer therapies” (HEMISPHERIAN AS, priority 2019, dated 2026).
# Assays:
# U87-MG cells = experiment: Survival assay (MTT), U87-MG; conditions: MTT; for IC50: U87-MG, Glioma, Grade IV; for cytotoxicity to U87-MG cells (cell survival): up to 100 μM
# Method: (§5) Cell lines not mentioned above were grown in DMEM (Sigma, Cat.Nr. D6429) supplemented with 10% Fetal Bovine Serum and 100 U/ml penicillin 100 U/ml streptomycin. All cells were maintained in a 5% CO2, humidified, water-jacketed incubator at 37° C. Cells were passed between 70 and 90% confluence.
# (§6) In a 96-well plate, 4000 cells in 100 μl of corresponding medium were seeded. The following day, drugs, diluted in DMSO, were added in 8 concentrations in triplicate. Drugs were added as a 4-fold dilution series starting from 100 μM. Cells were incubated with the drugs for 72 hours. Cell proliferation was assessed by MTT assay according to the manufacturer's protocol (ATCC, Cat. Nr. 30-1010K). Cell survival was normalized to the survival of cells treated with DMSO only. Experiment was performed three times, data represent mean of nine wells±SEM.
# In a 96-well plate, 4000 cells in 100 μl of corresponding medium were seeded. The following day, drugs, diluted in DMSO, were added in triplicate at a concentration of 100, 25, 6.25, 1.56, 0.39, 0.1, 0.02, or 0.006 ┘M. Cells were incubated with the drugs for 72 hours. Cell proliferation was assessed by MTT assay according to the manufacturer's protocol (ATCC, Cat. Nr. 30-1010K). Cell survival was normalized to the survival of cells treated with DMSO only. Experiment was performed three times, data represent mean of nine wells±SEM.
# HCT-116 cells = experiment: Survival assay (MTT), HCT-116; format: cell-based, human; conditions: HCT-116, Colon Carcinoma, 72 hours, MTT
# Method: (§1) Cells were incubated with the drugs for 72 hours.
# U937 cells = experiment: Survival assay (MTT), U937; format: cell-based, human; conditions: U937, Lymophoma, 72 hours, MTT
# Method: (§2) Cells were passed between 70 and 90% confluence.
# as §1
# HeLa cells = experiment: Survival assay (MTT), HeLa; conditions: for IC50: HeLa
# Method: as §5, §6
# HeLa cells, grown as described above (Materials and Methods), were treated with 5-hydroxymethyl-2′-deoxycytidine and 5-formyl-2′-deoxycytidine. After three days of treatment with these compounds, cell survival was assessed as described above (Materials and Methods).
# After three days of treatment with these compounds at a concentration of 100, 25, 6.25, 1.56, 0.39, 0.1, 0.02, or 0.006 μM, cell survival was assessed by MTT assay as described above (Materials and Methods).
# 22Rv1 cells = experiment: Survival assay (MTT), 22Rv1; format: cell-based, human; conditions: 22Rv1, Prostate Carcinoma, 72 hours, MTT
# Method: as §2, §1
# NCI-N87 cells = experiment: Survival assay (MTT), NCI-N87; format: cell-based, human; conditions: NCI-N87, Gastric Carcinoma, 72 hours, MTT
# Method: as §2, §1
# MIA PaCa-2 cells = experiment: Survival assay (MTT), MIA PaCa-2; format: cell-based, human; conditions: MIA PaCa-, Pancreatic Carcinoma, 72 hours, MTT
# Method: as §2, §1
# human cancer cell lines = experiment: Survival assay, range of human cancer cell lines; format: cell-based; conditions: cell lines of Table 1
# Method: as §1
# With the knowledge that 5-formyl-2′-deoxycytidine is cytotoxic to cervical carcinoma (HeLa) cells, the study was expanded in two directions: (i) a further compound was assessed: 5-carboxyl-2′-deoxycytidine; and (ii) their cytotoxic effects against a wide range of human cancer cell lines was assessed (Table 1).
# SK-OV-3 cells = experiment: Survival assay (MTT), SK-OV-3; format: cell-based, human; conditions: SK-OV-3, Ovarian Adenocarcinoma, 72 hours, MTT
# Method: as §2, §1
# MCF-7 cells = experiment: Survival assay (MTT), MCF-7; format: cell-based, human; conditions: MCF-7, Epithelial Adenocarcinoma (Breast), 72 hours, MTT
# Method: as §2, §1
# HL-60 cells = experiment: Survival assay (MTT), HL-60; format: cell-based, human; conditions: HL-60, Acute Promyelocytic Leukemia, 72 hours, MTT
# Method: as §2, §1
# A549 cells = experiment: Survival assay (MTT), A549; format: cell-based, human; conditions: A549, Lung Carcinoma, 72 hours, MTT
# Method: as §2, §1
# U2OS cells = experiment: Survival assay (MTT), U2OS; format: cell-based, human; conditions: Bone Osteoscarcoma, 72 hours, MTT
# Method: as §2, §1
# A375 cells = experiment: Survival assay (MTT), A375; format: cell-based, human; conditions: A375, Malignant Melanoma, 72 hours, MTT
# Method: as §2, §1
# A-498 cells = experiment: Survival assay (MTT), A-498; format: cell-based, human; conditions: A-498, Kidney Carcinoma, 72 hours, MTT
# Method: as §2, §1
# glioblastoma multiforme = conditions: Phase II trials (NCI 06-C-0064E); cited from earlier work
# G30 cells = experiment: Survival assay (MTT), G30; format: cell-based, human; conditions: G30, Glioma, Grade IV, 72 hours
# Method: as §2, §1
# G166 cells = experiment: Survival assay (MTT), G166; format: cell-based, human; conditions: G166, Glioma, Grade IV, 72 hours
# Method: (§3) Primary glioma neural stem (GNS) cells (G7, G14, G144, G166) were cultured on poly-D-lysine (Merck Millipore, Cat. Nr. A-003-E) and laminin (R&D Systems, Cat.Nr. 3446-005-01) coated plates in neural stem cell medium (50% DMEM-F12 (Thermofisher, Cat. Nr. 21041025), 50% neurobasal medium (Thermofisher, Cat. Nr. 10888-022), N2 (Life Technologies, Cat. Nr. A-003-E) and B27 supplements (Life Technologies, Cat.Nr. 12587010), 1 mM sodium pyruvate (Life Technologies, Cat.Nr. 11360-039), 2 mM glutamax (Life Technologies, Cat. Nr. 35050038), 1 mM HEPES (Fisher Scientific, Cat. Nr. BP299-1), 0.1 mM β-mercaptoethanol (Life Technologies, Cat. Nr. 31350010), 1× nonessential amino acids (Life Technologies, Cat. Nr. 11140-035), 0.006% bovine serum albumin (Sigma, Cat. Nr. A8577-10ML), 4 μg/ml heparin (Sigma, Cat. Nr. H3149-25KU), 100 U/ml penicillin, 100 μg/ml streptomycin, 20 ng/ml hEGF (R&D Systems, Cat. Nr. 236-EG-200), 10 ng/ml bFGF (Peprotech, Cat. Nr. 100-18B).
# as §1
# MRC5 cells = experiment: Survival assay (MTT), MRC5; format: cell-based, human; conditions: MRC5, Normal, Lung; 72 hours, MTT
# Method: as §2, §1
# (§4) The present inventors further investigated the extent to which these compounds kill normal human cells; low cytotoxicity against normal human cells is advantageous property for anti-cancer agents. The cytotoxicity of these compounds in various normal human cell lines was therefore investigated (Table 3). Cells were grown and the survival assay was performed as described above (Materials and Methods).
# Buffy A cells = experiment: Survival assay (MTT), Buffy A; format: cell-based, human; conditions: Normal, Bone Marrow, 72 hours
# Method: as §2, §1, §4
# Buffy M cells = experiment: Survival assay (MTT), Buffy M; format: cell-based, human; conditions: Normal, Bone Marrow, 72 hours
# Method: as §2, §1, §4
# U3013 cells = experiment: Survival assay (MTT), U3013; format: cell-based, human; conditions: U3013, Glioma, Grade IV, 72 hours
# Method: as §2, §1
# CB152 cells = experiment: Survival assay (MTT), CB152; format: cell-based, human; conditions: CB152, Glioma, Grade IV, 72 hours
# Method: as §2, §1
# G144 cells = experiment: Survival assay (MTT), G144; format: cell-based, human; conditions: G144, Glioma, Grade IV, 72 hours
# Method: as §3, §1
# Buffy C cells = experiment: Survival assay (MTT), Buffy C; format: cell-based, human; conditions: Normal, Bone Marrow, 72 hours
# Method: as §2, §1, §4
# U3017 cells = experiment: Survival assay (MTT), U3017; format: cell-based, human; conditions: U3017, Glioma, Grade IV, 72 hours
# Method: as §2, §1
# G7 cells = experiment: Survival assay (MTT), G7; format: cell-based, human; conditions: G7, Glioma, Grade IV, 72 hours
# Method: as §3, §1
# HaCat cells = experiment: Survival assay (MTT), HaCat; format: cell-based, human; conditions: Normal, Keratinocytes, 72 hours
# Method: as §2, §1, §4
# DIPG007 cells = experiment: Survival assay (MTT), DIPG007; format: cell-based, human; conditions: DIPG007, Glioma, Grade IV, 72 hours
# Method: as §2, §1
# [1] = test system: Glioma, Grade IV cell lines; experiment: Survival assay, panel of 12 patient derived Glioma, Grade IV cell lines; format: cell-based, human; conditions: of 12 cell lines of Table 2
# Method: as §3, §2, §1
# Due to lack of activity in previous assays, 5-carboxyl-2′-deoxycytidine was not included in this more rigorous analysis.
# G14 cells = experiment: Survival assay (MTT), G14; format: cell-based, human; conditions: G14, Glioma, Grade IV, 72 hours
# Method: as §3, §1
# SF188 cells = experiment: Survival assay (MTT), SF188; format: cell-based, human; conditions: SF188, Glioma, Grade IV, 72 hours
# Method: as §2, §1
# G26 cells = experiment: Survival assay (MTT), G26; format: cell-based, human; conditions: G26, Glioma, Grade IV, 72 hours
# Method: as §2, §1
# Arpe19 cells = experiment: Survival assay (MTT), Arpe19; format: cell-based, human; conditions: Arpe19, Normal, Ectoderm; 72 hours, MTT
# Method: as §1, §4
compound,measurement,setting,value
"Nc1nc(=O)n([C@H]2C[C@H](O)[C@@H](CO)O2)cc1Cl [5-chloro-2′-deoxycytidine, reference compound]",IC50,"U87-MG cells; Homo sapiens, U-87 MG, 72 h",> 25 µM
COCc1cn([C@H]2C[C@H](O)[C@@H](CO)O2)c(=O)[nH]c1=O [5-methoxymethyl-2′-deoxyuridine],cytotoxicity to U87-MG cells (cell survival),U87-MG cells; 72 hours,unable to survive
Nc1nc(=O)n([C@H]2C[C@H](O)[C@@H](COP(=O)(O)OP(=O)(O)OP(=O)(O)O)O2)cc1CO [5-hydroxymethyl-2′-deoxycytidine-5′-triphosphate],cytotoxicity to U87-MG cells (cell survival),U87-MG cells; 72 hours,cytotoxic
"Nc1nc(=O)n([C@H]2C[C@H](O)[C@@H](CO)O2)cc1C(=O)O [2d5caC, 5-carboxy-2′-deoxycytidine, reference compound]",IC50,"HCT-116 cells; Homo sapiens, HCT-116, 72 h",> 25 µM
same,IC50,"U937 cells; Homo sapiens, U-937",> 25 µM
same,IC50,"HeLa cells; Homo sapiens, 72 h",> 25 µM
same,IC50,"22Rv1 cells; Homo sapiens, 22Rv1, 72 h",> 25 µM
same,IC50,NCI-N87 cells; Homo sapiens,> 25000 nM
same,IC50,"MIA PaCa-2 cells; Homo sapiens, MIA PaCa-2",> 25 µM
same,IC50,"U87-MG cells; Homo sapiens, U-87 MG, 72 h",> 25 µM
same,cytotoxicity in the cancer cell lines evaluated,human cancer cell lines,no cytotoxic properties
same,IC50,SK-OV-3 cells; Homo sapiens,> 25 µM
same,IC50,"MCF-7 cells; Homo sapiens, MCF7",> 25 µM
same,IC50,HL-60 cells; Homo sapiens,> 25 µM
same,IC50,"A549 cells; Homo sapiens, A549, 72 h",> 25000 nM
same,IC50,U2OS cells; Homo sapiens,> 25000 nM
same,IC50,"A375 cells; Homo sapiens, A-375",> 25 µM
same,IC50,"A-498 cells; Homo sapiens, A498, 72 h",> 25000 nM
"Nc1nc(=O)n([C@H]2C[C@H](O)[C@@H](CO)O2)cc1I [5-iodo-2′-deoxycytidine, reference compound]",IC50,"U87-MG cells; Homo sapiens, U-87 MG, 72 h",> 25 µM
"Avastin (RTM): bevacizumab, an angiogenesis inhibitor with multiple oncology indications",overall survival benefit,glioblastoma multiforme,did not yield an overall survival benefit
"O=c1[nH]cc(F)c(=O)[nH]1 [5fU, 5-flurouracil, reference compound]",IC50,G30 cells,23.3 µM
same,IC50,G166 cells,4.81 µM
same,IC50,MRC5 cells,> 25 µM
same,IC50,Buffy A cells,> 25 µM
same,IC50,HCT-116 cells,3.54 µM
same,IC50,U937 cells,7.45 µM
same,IC50,Buffy M cells,> 25 µM
same,IC50,U3013 cells,4.14 µM
same,IC50,"HeLa cells; Cervical Adenocarcinoma, 72 hours, MTT",> 25 µM
same,IC50,CB152 cells,6.5 µM
same,IC50,G144 cells,6.8 µM
same,IC50,Buffy C cells,> 25 µM
same,IC50,U3017 cells,3.92 µM
same,IC50,G7 cells,6.46 µM
same,IC50,22Rv1 cells,> 25 µM
same,IC50,NCI-N87 cells,1520 nM
same,IC50,MIA PaCa-2 cells,8.1 µM
same,IC50,HaCat cells,523 nM
same,IC50,U87-MG cells; 72 hours,> 25 µM
same,IC50,DIPG007 cells,4.3 µM
same,"number of Glioma, Grade IV cell lines killed",[1],11 of 12
same,IC50,G14 cells,11.6 µM
same,IC50,SF188 cells,3.88 µM
same,IC50,SK-OV-3 cells,3.76 µM
same,IC50,MCF-7 cells,> 25 µM
same,IC50,HL-60 cells,> 25 µM
same,IC50,G26 cells,7.12 µM
same,IC50,Arpe19 cells,> 25 µM
same,IC50,A549 cells,1850 nM
same,IC50,U2OS cells,2890 nM
same,IC50,A375 cells,7.87 µM
same,IC50,A-498 cells,2370 nM
CC(=O)OCc1cn([C@H]2C[C@H](O)[C@@H](CO)O2)c(=O)[nH]c1=O [5-acetoxymethyl-2′-deoxyuridine],cytotoxicity to U87-MG cells (cell survival),U87-MG cells; 72 hours,unable to survive
"Nc1nc(=O)n([C@H]2C[C@H](O)[C@@H](CO)O2)cc1Br [5-bromo-2′-deoxycytidine, reference compound]",IC50,"U87-MG cells; Homo sapiens, U-87 MG, 72 h",> 25 µM
Nc1nc(=O)n([C@H]2C[C@H](O)[C@@H](COP(=O)(O)OP(=O)(O)OP(=O)(O)O)O2)cc1C=O [5-formyl-2′-deoxycytidine-5′-triphosphate],cytotoxicity to HeLa cells (cell survival),"HeLa cells; three days of treatment, MTT, up to 100 μM",unable to survive
same,cytotoxicity to U87-MG cells (cell survival),U87-MG cells; 72 hours,cytotoxic
